No end group written: not given here.
Test system: anti-GD2 ganglioside mAb 3F8
Experiment: Inhibition assay: inhibition of binding of anti-GD2 mAb 3F8 to GD2 ganglioside bearing melanoma cells
Details: GD2 (+) human melanoma cells
Procedure: Peptide mimics of GD2 ganglioside can be isolated by panning phage display peptide libraries with anti-GD2 ganglioside such as mAbs 3F8, 5F11, and KM666 that recognize different epitopes on GD2 ganglioside. Anti-GD2 ganglioside mAbs can be used to isolate phage that display antibody reactive peptides. After phage panning, the binding ability of isolated phage colonies to anti-GD2 ganglioside mAbs is tested with immunoscreening and further confirmed by ELISA. Anti-GD2 antibody reactive phage clone and the same phage without displaying peptides, can be utilized as a positive and a negative controls respectively in the immunoscreening and ELISA. In the positive phage clones, the DNA inserts that encode the antibody reactive peptides can be sequenced. Peptides can be synthesized based on the sequences of the DNA inserts. The synthesized peptides are tested in ELISA to determine their binding reactivity with corresponding anti-GD2 ganglioside mAbs. […] The synthetic peptides that inhibit or block the binding of anti-GD2 ganglioside mAbs to GD2 ganglioside can be tested as active immunotherapy candidates.
The synthesized peptides were tested with reverse ELISA and inhibition assay with mAb 3F8. […] Peptide J51 contains HLA-B7 and HLA-DRB1 binding motifs.

| Substance | inhibition of the binding of mAb 3F8 to GD2 ganglioside bearing melanoma cells |
| --- | --- |
| DCFRGDPYQPKWRLC (J51 peptide mimic for GD2) [Peptide J51, GD2 peptide mimic from PVIII X15 library] | inhibited the binding |
| cJ51: cyclic peptide J51, which mimics the structure of GD2 ganglioside (DCFRGDPYQPKWRLC; also: cyclic, cyclising bond not given here) | inhibit the binding |
